# Results: patent US7572798B2, “Combi-molecules having signal transduction inhibitory properties and DNA damaging properties” (McGill University, priority 2001, dated 2009)
# Key:
# NIH3T3HER14 cells = assay: Growth factor-stimulated proliferation in NIH3T3HER14 cells (SRB); assay type: cell-based, mouse
# Protocol: To study the effect of our compounds on growth factors stimulated proliferation, cells were grown to 70% confluence in 48-well plates and washed twice with PBS, after which they were exposed to serum-free medium for 18 h. The cells were then exposed to each drug and growth factors (EGF, TGFα, PDGF or serum) for 72 h and cell growth measured using the sulforhodamine B (SRB) assay (33). Briefly, following drug treatment, cells were fixed using 50 μl of cold trichloroacetic acid (50%) for 60 min at 4° C., washed five times with tap water, and stained for 30 min at room temperature with SRB (0.4%) dissolved in acetic acid (0.5%). The plates were rinsed five times with 1% acetic acid and allowed to air dry. […] Each point represents the average of at least two independent experiments run in triplicate.
# EGFR = EGFR (Homo sapiens, UniProt P00533); assay: EGF-induced EGFR autophosphorylation in A431 cells (Western blot)
# Protocol: The inhibition of receptor autophosphorylation in viable cells was determined by anti-phosphotyrosine Western Blots. A431 cells were pre-incubated overnight for 24 h at 37° C. in a 6-well plate (1×10^6) with 0.1% serum, after which they were exposed to a range of doses for each drug for 2 h and subsequently treated with 50 ng/mL EGF for 30 min at 37° C. The cells were thereafter washed with PBS and re-suspended in cold lysis buffer [50 mM Tris-HCl pH 7.5; 150 mM NaCl; 1% NP40, 1 mM EDTA; 5 mM NaF; 1 mM Na3VO4; protease inhibitor tablet (Roche Biochemicals, Laval, Canada)]. The lysates were kept on ice for 30 min and collected by centrifugation at 10 000 rpm for 20 min at 4° C. The protein concentrations were determined against a standardized control using the Bio-Rad protein assay kit (Bio-Rad Laboratories, Hercules, Calif.). […] Non-specific binding on the PVDF membrane was minimized with a blocking buffer containing nonfat dry milk (3%) in PBS. The membrane was blotted with primary antibodies [either antiphosphotyrosine antibody (UBI, Lake Placid, N.Y.) for the detection of phosphotyrosine, or anti-EGFR (Neomarkers, Fremont, Calif.) for the determination of corresponding receptor levels], and anti-β-tubulin (Neomarkers, Fremont, Calif.) for the detection of equal loading. Thereafter, blots were incubated with HRP-goat anti-mouse antibody (1:200 dilution; Bio-Rad Laboratories, Hercules, Calif.) and the bands visualized with an enhanced chemiluminescence system (Amersham Pharmacia Biotech, Buckinghamshire, UK). Band intensities were measured using the SynGene GeneTools software package (Cambridge, UK).
# The inhibition of receptor autophosphorylation in viable cells was determined by anti-phosphotyrosine Western Blots. […] Protein concentrations were determined against a standardized control using the Bio-Rad protein assay kit (Bio-Rad Laboratories, Hercules, Calif.). […] Band intensities were measured using the SynGene GeneTools software package (Cambridge, UK).
# [1] = Degradation in serum-containing cell culture medium (UV, HPLC); assay type: in vitro ADME; conditions: bovine, 37° C.
# Protocol: Thereafter, proteins were precipitated by the addition of acetonitrile (3.5 ml) and the supernatant collected by centrifugation. […] The operating mode was isocratic and two solutions, “A” (50% acetonitrile) and “B” (50% water), were used with a 0.5 ml/min flow rate and a 5 μL injection volume. […] For the rapid quantitation of metabolite, a less polar acetonitrile-water (70:30) eluent was used.
# The half-life was estimated by a one-phase exponential decay curve-fit method using the GraphPad software package (GraphPad Software, Inc., San Diego, Calif.).
# The half-life of BJ2000 under physiological conditions was studied by UV-spectrophotometry. BJ2000 was dissolved in a minimum volume of DMSO, diluted with RPMI-1640 supplemented with 10% FBS, and absorbencies read at 340 nm in a UV cell maintained at 37° C. with a circulating water bath. The half-life was estimated by a one-phase exponential decay curve-fit method, using the GraphPad software package (GraphPad software, Inc., San Diego, Calif., USA).
# Proteins were thereafter precipitated by the addition of acetonitrile (3.5 ml), and the supernatant collected by centrifugation. […] HPLC analyses were performed on a Hewlett Packard 1090 liquid chromatograph, using a Waters C4 15-μm 300×3.9-mm reverse phase column to characterize and quantitate the products resulting from the degradation of BJ2000. […] The peaks were detected at 250 nm.
# [2] = molecular target: T1, cytoplasmic domain of the insulin receptor β subunit (Homo sapiens, UniProt P06213); assay: insulin receptor kinase ELISA; assay type: biochemical; conditions: 1-100 μM range
# T1 construct: Baculovirus-expressed cytoplasmic domain of the insulin receptor β subunit; purchased Biomol Research laboratories Inc., USA; host or cells: Baculovirus expression
# Protocol: (§1) Conditions for the c-src and insulin kinase assays were similar to those of the EGFR kinase assay, with the exception of the addition of 1 mM manganese chloride to the assay buffer, and a final ATP concentration of 100 μM. The reaction was terminated by the addition of 50 μl of a 250 mM solution of EDTA prior to aspiration.
# human c-src = molecular target: T2, human c-src (Homo sapiens, UniProt P12931); assay: c-src kinase ELISA; assay type: biochemical; conditions: 1-100 μM range
# T2 construct: purchased Upstate NY; host or cells: Baculovirus expression
# Protocol: as §1
# Sequence of EGFR (P00533 25-1210): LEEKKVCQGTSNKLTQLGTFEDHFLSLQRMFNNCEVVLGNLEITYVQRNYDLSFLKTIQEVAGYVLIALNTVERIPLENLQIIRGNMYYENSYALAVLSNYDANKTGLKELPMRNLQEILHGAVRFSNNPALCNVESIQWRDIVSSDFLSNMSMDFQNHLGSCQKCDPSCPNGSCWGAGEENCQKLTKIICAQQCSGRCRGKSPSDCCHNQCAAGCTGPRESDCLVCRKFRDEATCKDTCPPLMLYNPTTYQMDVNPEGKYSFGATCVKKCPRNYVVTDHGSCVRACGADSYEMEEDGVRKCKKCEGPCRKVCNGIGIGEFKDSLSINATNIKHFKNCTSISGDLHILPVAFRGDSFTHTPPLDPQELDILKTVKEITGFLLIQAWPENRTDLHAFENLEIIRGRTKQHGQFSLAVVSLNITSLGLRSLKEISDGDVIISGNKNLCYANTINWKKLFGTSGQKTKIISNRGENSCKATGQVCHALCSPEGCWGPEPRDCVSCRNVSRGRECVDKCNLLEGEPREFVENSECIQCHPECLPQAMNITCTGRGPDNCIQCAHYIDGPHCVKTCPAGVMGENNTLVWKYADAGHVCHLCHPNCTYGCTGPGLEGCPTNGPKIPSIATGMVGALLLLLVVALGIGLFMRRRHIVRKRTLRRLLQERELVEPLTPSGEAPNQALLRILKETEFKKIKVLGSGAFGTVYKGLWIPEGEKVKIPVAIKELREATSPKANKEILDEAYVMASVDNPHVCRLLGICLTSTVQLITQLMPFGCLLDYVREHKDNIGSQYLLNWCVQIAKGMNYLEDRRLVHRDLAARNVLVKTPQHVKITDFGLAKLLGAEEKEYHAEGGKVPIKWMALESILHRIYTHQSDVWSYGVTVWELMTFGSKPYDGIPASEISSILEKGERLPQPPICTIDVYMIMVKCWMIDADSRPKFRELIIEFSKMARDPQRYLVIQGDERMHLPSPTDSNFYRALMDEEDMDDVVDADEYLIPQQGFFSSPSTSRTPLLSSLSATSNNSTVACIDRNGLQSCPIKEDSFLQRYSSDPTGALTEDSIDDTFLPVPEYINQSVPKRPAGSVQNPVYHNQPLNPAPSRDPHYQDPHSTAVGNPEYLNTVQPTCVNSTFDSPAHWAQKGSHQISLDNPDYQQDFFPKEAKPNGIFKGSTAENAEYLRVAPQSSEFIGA
# T2 sequence (P12931 whole entry): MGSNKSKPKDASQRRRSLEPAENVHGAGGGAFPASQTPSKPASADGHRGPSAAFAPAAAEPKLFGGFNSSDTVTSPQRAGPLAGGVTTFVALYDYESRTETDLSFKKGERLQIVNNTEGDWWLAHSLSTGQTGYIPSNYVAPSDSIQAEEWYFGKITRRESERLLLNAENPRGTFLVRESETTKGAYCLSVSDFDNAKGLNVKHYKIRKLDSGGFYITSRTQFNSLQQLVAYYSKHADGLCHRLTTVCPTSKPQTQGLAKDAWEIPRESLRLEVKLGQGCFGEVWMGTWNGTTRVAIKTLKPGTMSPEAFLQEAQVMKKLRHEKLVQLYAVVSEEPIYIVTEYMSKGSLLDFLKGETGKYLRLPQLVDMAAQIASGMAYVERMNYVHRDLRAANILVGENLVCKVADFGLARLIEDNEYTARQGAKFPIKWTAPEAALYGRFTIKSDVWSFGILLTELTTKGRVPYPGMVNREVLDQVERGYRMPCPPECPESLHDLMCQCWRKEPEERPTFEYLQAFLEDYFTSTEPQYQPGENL
# T1 sequence (P06213 980-1382 limits assumed): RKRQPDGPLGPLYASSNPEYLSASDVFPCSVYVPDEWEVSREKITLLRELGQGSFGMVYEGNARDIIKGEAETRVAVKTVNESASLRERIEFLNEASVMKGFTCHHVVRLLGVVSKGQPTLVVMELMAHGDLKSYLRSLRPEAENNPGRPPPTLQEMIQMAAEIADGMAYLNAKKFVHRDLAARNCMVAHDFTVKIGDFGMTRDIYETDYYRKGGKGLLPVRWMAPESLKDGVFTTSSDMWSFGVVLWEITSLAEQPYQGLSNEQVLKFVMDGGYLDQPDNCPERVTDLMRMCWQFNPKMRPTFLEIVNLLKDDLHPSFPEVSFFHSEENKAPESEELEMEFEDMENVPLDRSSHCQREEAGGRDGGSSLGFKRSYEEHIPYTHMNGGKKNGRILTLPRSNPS
smiles,measurement,setting,value
CNN=Nc1ccc2ncnc(Nc3cccc(Cl)c3)c2c1 [BJ2000],concentration giving 100% growth inhibition,"NIH3T3HER14 cells; EGF or TGFα-induced proliferation, NIH3T3HER14, 72 h",1 µM
same,concentration giving 100% inhibition,"NIH3T3HER14 cells; PDGF-stimulated growth, NIH3T3HER14, 72 h",approximately 30 μM
same,fold less effective in inhibiting PDGF-stimulated growth,"NIH3T3HER14 cells; versus EGF or TGFα-induced proliferation, NIH3T3HER14",approximately 30 fold
same,IC50,EGFR,~6 µM
same,half-life,"[1]; serum-containing cell culture medium (RPMI with 10% serum), RPMI with 10% serum, read-out: half-life (t1/2) by UV spectrophotometry at 340 nm",34 min
same,half-life at 625 µM,"[1]; RPMI-1640 with 10% FBS, read-out: half-life (t1/2) by HPLC analysis",75 min
same,effect on insulin receptor TK,[2],nor did it exert any effect on insulin receptor TK
same,effect on c-src TK activity,human c-src,did not block c-src TK activity
